Test results as given in PubChem BioAssay AID330 (DTP/NCI, 2004).
Where “and” joins values, the source holds several entries; their conditions need not be identical. Equal values may be shown once. Inconclusive results and toxic doses are left out.

Test system: P388 leukemia ip, CD2F1 mice, survival T/C
Assay: NCI In Vivo Anticancer Drug Screen. Data for tumor model P388 Leukemia (intraperitoneal) in CD2F1 (CDF1) mice
Settings: endpoint: median survival time, higher = longer survival
Outline: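 Mice carrying the transplanted tumor received test compound or vehicle. Survival was recorded in each group, and the value is the treated-group measurement divided by that of the vehicle-treated control group.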

[1] = dose: 25.0 mg/kg/injection, schedule: Q01DX009 (ip), vehicle: saline
[2] = dose: 50.0 mg/kg/injection, schedule: Q01DX009 (ip), vehicle: saline
[3] = dose: 60.0 mg/kg/injection, schedule: Q01DX005 (ip), vehicle: saline
[4] = dose: 120.0 mg/kg/injection, schedule: Q01DX005 (ip), vehicle: saline
[5] = dose: 240.0 mg/kg/injection, schedule: Q01DX005 (ip), vehicle: saline
[6] = dose: 50.0 mg/kg/injection, schedule: Q01DX009 (ip), vehicle: saline with Tween-80
[7] = dose: 100.0 mg/kg/injection, schedule: Q01DX009 (ip), vehicle: saline with Tween-80
[8] = dose: 200.0 mg/kg/injection, schedule: Q01DX009 (ip), vehicle: saline with Tween-80
[9] = dose: 100.0 mg/kg/injection, schedule: Q04DX003 (ip), vehicle: Klucel (hydroxypropylcellulose) (HPC)
[10] = dose: 60.0 mg/kg/injection, schedule: Q01DX005 (ip), vehicle: saline with Tween-80
[11] = dose: 120.0 mg/kg/injection, schedule: Q01DX005 (ip), vehicle: saline with Tween-80
[12] = dose: 240.0 mg/kg/injection, schedule: Q01DX005 (ip), vehicle: saline with Tween-80
[13] = dose: 50.0 mg/kg/injection, schedule: Q01DX005 (ip), vehicle: Klucel (hydroxypropylcellulose) (HPC)
[14] = dose: 100.0 mg/kg/injection, schedule: Q04DX003 (ip), vehicle: saline
[15] = dose: 60.0 mg/kg/injection, schedule: Q01DX005 (ip), vehicle: Klucel (hydroxypropylcellulose) (HPC)
[16] = dose: 120.0 mg/kg/injection, schedule: Q01DX005 (ip), vehicle: Klucel (hydroxypropylcellulose) (HPC)
[17] = dose: 240.0 mg/kg/injection, schedule: Q01DX005 (ip), vehicle: Klucel (hydroxypropylcellulose) (HPC)
[18] = dose: 100.0 mg/kg/injection, schedule: Q04DX003 (ip), vehicle: saline with Tween-80
[19] = dose: 200.0 mg/kg/injection, schedule: Q04DX003 (ip), vehicle: saline with Tween-80
[20] = dose: 400.0 mg/kg/injection, schedule: Q04DX003 (ip), vehicle: saline with Tween-80
[21] = dose: 25.0 mg/kg/injection, schedule: Q01DX009 (ip), vehicle: saline with Tween-80

For `C[C@]12CCC(=O)C[C@@H]1CC[C@@H]1[C@@H]2CC[C@]2(C)[C@@H](OC(=O)N(CCCl)N=O)CC[C@@H]12`, the T/C (dose: 25.0 mg/kg/injection, schedule: Q01DX005 (ip), vehicle: other) was 105 % of control, the T/C (dose: 25.0 mg/kg/injection, schedule: Q01DX009 (ip), vehicle: other) was 120 % of control and the T/C [1] was 106 % of control. For the same molecule, the T/C (dose: 31.2 mg/kg/injection, schedule: Q04DX003 (ip), vehicle: saline) was 116 % of control, the T/C (dose: 50.0 mg/kg/injection, schedule: Q01DX005 (ip), vehicle: other) was 105 % of control and the T/C [2] was 121 % of control. For the same molecule, the T/C (dose: 62.5 mg/kg/injection, schedule: Q04DX003 (ip), vehicle: saline) was 110 % of control, the T/C (dose: 100.0 mg/kg/injection, schedule: Q01DX005 (ip), vehicle: other) was 112 % of control and the T/C (dose: 100.0 mg/kg/injection, schedule: Q01DX009 (ip), vehicle: other) was 100 % of control.
In the case of `C=CCN(CC=C)C1C(O)CCOC1OC` (stereo not given), the T/C [3] is reported as 109 % of control and 101 % of control, the T/C [4] is reported as 107 % of control and 103 % of control and the T/C [5] is reported as 109 % of control and 102 % of control.
With `COc1ccc2c(c1OC)C(C(Cl)(Cl)Cl)N1CCc3cc4c(cc3C1=C2)OCO4` (stereo not given) the T/C [6] was 93 % of control, the T/C [7] was 90 % of control and the T/C [8] was 92 % of control.
With `c1ccc2c3c(ccc2c1)CC1CCCN1C3` (stereo not given) the T/C [9] was 100 % of control and the T/C (dose: 200.0 mg/kg/injection, schedule: Q04DX003 (ip), vehicle: Klucel (hydroxypropylcellulose) (HPC)) was 103 % of control.
`COC(=O)C(=O)c1c(C(=O)OC)nc2nnc(N)n2c1-c1ccc(F)cc1` was tested, and the T/C (dose: 30.0 mg/kg/injection, schedule: Q01DX005 (ip), vehicle: saline with Tween-80) was 93 % of control, the T/C [10] was 99 % of control and the T/C [11] was 88 % of control. For the same molecule, the T/C [12] was 93 % of control.
In the case of `COc1cc2nncc(Cl)c2cc1OC`, the T/C [13] is reported as 101 % of control.
With `Cc1ccc(Nc2nnc(CSc3ccc(Cl)cc3)s2)c(S(=O)(=O)O)c1` the T/C [10] was 104 % of control, the T/C [11] was 94 % of control and the T/C [12] was 104 % of control.
`C=C1C(=O)CC2C3C1C2(C)CCC(OC(C)=O)C3(C)C` (stereo not given) was tested, and the T/C (dose: 5.5 mg/kg/injection, schedule: Q01DX005 (ip), vehicle: Klucel (hydroxypropylcellulose) (HPC)) was 93 % of control, the T/C (dose: 11.0 mg/kg/injection, schedule: Q01DX005 (ip), vehicle: Klucel (hydroxypropylcellulose) (HPC)) was 93 % of control and the T/C (dose: 22.0 mg/kg/injection, schedule: Q01DX005 (ip), vehicle: Klucel (hydroxypropylcellulose) (HPC)) was 100 % of control. For the same molecule, the T/C (dose: 44.0 mg/kg/injection, schedule: Q01DX005 (ip), vehicle: Klucel (hydroxypropylcellulose) (HPC)) was 103 % of control.
`CCCCNC(=O)CCC(NS(=O)(=O)c1ccc(C)cc1)C(=O)NCCCC` (stereo not given) was tested, and the T/C [13] was 93 % of control, the T/C (dose: 100.0 mg/kg/injection, schedule: Q01DX005 (ip), vehicle: Klucel (hydroxypropylcellulose) (HPC)) was 100 % of control and the T/C (dose: 200.0 mg/kg/injection, schedule: Q01DX005 (ip), vehicle: Klucel (hydroxypropylcellulose) (HPC)) was 93 % of control.
For `C[n+]1cccc2ccccc21`, the T/C [14] was 109 % of control.
For `C[n+]1c(SCC(=O)O)sc2ccccc21`, the T/C (dose: 12.5 mg/kg/injection, schedule: Q01DX009 (ip), vehicle: saline) was 99 % of control, the T/C [1] was 104 % of control and the T/C [2] was 108 % of control and 122 % of control.
For `NC(=O)c1nnn(Cc2cc(Cl)c(C(=O)c3ccc(Cl)cc3)c(Cl)c2)c1N`, the T/C [15] was 103 % of control, the T/C [16] was 103 % of control and the T/C [17] was 115 % of control. The T/C (dose: 480.0 mg/kg/injection, schedule: Q01DX005 (ip), vehicle: Klucel (hydroxypropylcellulose) (HPC)) was 119 % of control.
In the case of `NC(=O)CCC1CC(=O)c2ccccc2C1` (stereo not given), the T/C (dose: 100.0 mg/kg/injection, schedule: Q01DX001 (ip), vehicle: Klucel (hydroxypropylcellulose) (HPC)) is reported as 94 % of control, the T/C (dose: 200.0 mg/kg/injection, schedule: Q01DX001 (ip), vehicle: Klucel (hydroxypropylcellulose) (HPC)) is reported as 108 % of control and the T/C (dose: 400.0 mg/kg/injection, schedule: Q01DX001 (ip), vehicle: Klucel (hydroxypropylcellulose) (HPC)) is reported as 92 % of control.
`O=C1CCC(=O)N1CO` was tested, and the T/C (dose: 37.5 mg/kg/injection, schedule: Q01DX009 (ip), vehicle: saline with Tween-80) was 107 % of control and the T/C (dose: 75.0 mg/kg/injection, schedule: Q01DX009 (ip), vehicle: saline with Tween-80) was 120 % of control.
For `NC(=O)c1coc2c1C(=O)c1ccc3ccccc3c1CC2`, the T/C [10] was 102 % of control, the T/C [11] was 102 % of control and the T/C [12] was 108 % of control.
`CS(=O)(=O)OCC(O)C(O)C(OS(C)(=O)=O)C(O)COS(C)(=O)=O` (stereo not given) was tested, and the T/C (dose: 50.0 mg/kg/injection, schedule: Q04DX003 (ip), vehicle: Klucel (hydroxypropylcellulose) (HPC)) was 100 % of control and the T/C [9] was 100 % of control.
With `CCOC(=O)c1cnc2cc3c(cc2c1Nc1cccc(C(F)(F)F)c1)OCO3` the T/C [15] was 96 % of control, the T/C [16] was 102 % of control and the T/C [17] was 101 % of control.
With `CCC12CN3CCc4c([nH]c5ccccc45)C(C(=O)OC)(c4cc5c(cc4OC)N(C)C4C(O)(C(=O)OC)C(OC(C)=O)C6(CC)C=CCN7CCC54C76)CC(C3=O)C1O2` (stereo not given) the T/C (dose: 4.0 mg/kg/injection, schedule: Q01DX001 (ip), vehicle: water) was 118 % of control, the T/C (dose: 32.0 mg/kg/injection, schedule: Q01DX001 (ip), vehicle: water) was 116 % of control and the T/C (dose: 64.0 mg/kg/injection, schedule: Q01DX001 (ip), vehicle: water) was 169 % of control.
For `Cn1c(=O)[nH]c2c(c1=O)CCCN2`, the T/C (dose: 100.0 mg/kg/injection, schedule: Q04DX002 (ip), vehicle: Klucel (hydroxypropylcellulose) (HPC)) was 104 % of control, the T/C (dose: 200.0 mg/kg/injection, schedule: Q04DX002 (ip), vehicle: Klucel (hydroxypropylcellulose) (HPC)) was 98 % of control and the T/C (dose: 400.0 mg/kg/injection, schedule: Q04DX002 (ip), vehicle: Klucel (hydroxypropylcellulose) (HPC)) was 98 % of control.
For `CC(C)c1c(OC(=O)N(C)C)c(C#N)c2[nH]c3ccccc3n2c1=O`, the T/C [10] was 109 % of control, the T/C [11] was 94 % of control and the T/C [12] was 86 % of control.
With `NS(=O)(=O)c1ccc(NC(=O)Oc2ccc([N+](=O)[O-])cc2)cc1` the T/C (dose: 100.0 mg/kg/injection, schedule: Q01DX001 (ip), vehicle: saline with Tween-80) was 100 % of control, the T/C (dose: 200.0 mg/kg/injection, schedule: Q01DX001 (ip), vehicle: saline with Tween-80) was 100 % of control and the T/C (dose: 400.0 mg/kg/injection, schedule: Q01DX001 (ip), vehicle: saline with Tween-80) was 104 % of control.
In the case of `COC1=CC2C3Cc4c(-c5cc(OC)c(O)c6c5CC5C7C=C(OC)C(=O)CC67CCN5C)cc(OC)c(O)c4C2(CCN3C)CC1=O` (stereo not given), the T/C [6] is reported as 97 % of control, the T/C [2] is reported as 105 % of control and the T/C [7] is reported as 102 % of control. For the same molecule, the T/C (dose: 100.0 mg/kg/injection, schedule: Q01DX009 (ip), vehicle: saline) was 94 % of control, the T/C [18] was 104 % of control and the T/C [14] was 95 % of control. The T/C (dose: 200.0 mg/kg/injection, schedule: Q01DX009 (ip), vehicle: saline) was 105 % of control, the T/C [19] was 106 % of control and the T/C (dose: 200.0 mg/kg/injection, schedule: Q04DX003 (ip), vehicle: saline) was 93 % of control. For the same molecule, the T/C [20] was 95 % of control and the T/C (dose: 400.0 mg/kg/injection, schedule: Q04DX003 (ip), vehicle: saline) was 96 % of control.
In the case of `CNC(=O)O/N=C/c1ccccc1-c1ccccc1`, the T/C [6] is reported as 97 % of control and the T/C [7] is reported as 86 % of control.
`Cc1cc(C)c(C2C(=O)c3ccccc3C2=O)c(C)c1` was tested, and the T/C [21] was 111 % of control, the T/C [6] was 109 % of control and the T/C [7] was 116 % of control. The T/C [8] was 110 % of control.
For `C[C](C)(C)[Sn]([Cl])([c]1ccccc1)[C](C)(C)C`, the T/C [18] was 94 % of control, the T/C [19] was 104 % of control and the T/C [20] was 95 % of control.
With `CCOC(=O)CCc1cnc[nH]1` the T/C [3] was 108 % of control, the T/C [4] was 106 % of control and the T/C [5] was 98 % of control.
In the case of `Cc1ccc(C(=O)Cc2ccc(C#N)cc2)cc1`, the T/C [21] is reported as 99 % of control, the T/C [6] is reported as 118 % of control and the T/C [7] is reported as 108 % of control. For the same molecule, the T/C [8] was 99 % of control.
In the case of `NC(N)=Nc1c(N)ncnc1N`, the T/C [10] is reported as 104 % of control and 95 % of control, the T/C [11] is reported as 100 % of control and the T/C [12] is reported as 96 % of control and 98 % of control.
